The numbers were not newly measured in patent US9993449B2, “(S)-3-amino-4-(difluoromethylenyl)cyclopent-1-ene-1-carboxylic acid, and related compounds as GABA aminotransferase inactivators for the treatment of epilepsy, addiction and hepatocellular carcinoma” (NORTHWESTERN UNIVERSITY, priority 2015, dated 2018), which cites them from elsewhere.

The test system of series [1] is aspartate aminotransferase (Asp-AT). The note with it: reported; cited from earlier work.
For series [2], the system named is alanine aminotransferase (Ala-AT). The note with it: reported; cited from earlier work.
The target of series [3] is T1, ornithine aminotransferase (OAT) (Homo sapiens, UniProt P04181).
T1 sequence (P04181 26-439): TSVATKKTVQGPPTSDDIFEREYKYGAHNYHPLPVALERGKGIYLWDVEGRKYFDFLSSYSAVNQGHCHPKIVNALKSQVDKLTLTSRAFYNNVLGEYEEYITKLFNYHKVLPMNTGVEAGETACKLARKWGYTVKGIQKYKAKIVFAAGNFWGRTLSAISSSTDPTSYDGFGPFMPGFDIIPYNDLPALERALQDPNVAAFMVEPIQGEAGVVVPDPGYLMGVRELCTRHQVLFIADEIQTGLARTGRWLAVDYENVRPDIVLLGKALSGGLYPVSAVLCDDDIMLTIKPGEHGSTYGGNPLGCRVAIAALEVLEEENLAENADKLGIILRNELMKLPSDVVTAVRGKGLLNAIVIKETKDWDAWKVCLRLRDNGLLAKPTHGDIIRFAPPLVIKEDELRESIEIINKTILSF
The note with it: reported; cited from earlier work.

The target in the next series is T2, hERG channel (Homo sapiens, UniProt Q12809).
T2 construct: host or cells: CHO-K1
The note with it: earlier finding for CPP-115; cited from earlier work.

Another series deals with T3, CYP1A (Homo sapiens, UniProt P05177).
T3 construct: tissue Eurofins Panlabs; host or cells: human liver microsomes
T3 sequence (P05177 1-516): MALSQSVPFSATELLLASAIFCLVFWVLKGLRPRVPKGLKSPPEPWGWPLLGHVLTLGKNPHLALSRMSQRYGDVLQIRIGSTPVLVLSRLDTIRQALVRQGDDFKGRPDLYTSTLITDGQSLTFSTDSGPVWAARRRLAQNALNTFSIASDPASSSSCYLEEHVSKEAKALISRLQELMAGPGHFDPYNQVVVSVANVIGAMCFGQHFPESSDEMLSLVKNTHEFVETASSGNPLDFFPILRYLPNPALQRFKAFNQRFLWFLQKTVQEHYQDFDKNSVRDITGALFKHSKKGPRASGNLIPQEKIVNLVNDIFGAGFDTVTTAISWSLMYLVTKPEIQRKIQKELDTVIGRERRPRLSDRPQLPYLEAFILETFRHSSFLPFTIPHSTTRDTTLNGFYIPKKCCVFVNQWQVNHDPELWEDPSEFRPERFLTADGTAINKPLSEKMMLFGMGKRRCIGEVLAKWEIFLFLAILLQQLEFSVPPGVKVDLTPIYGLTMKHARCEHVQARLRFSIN
The note with it: earlier finding for CPP-115; cited from earlier work.

The target in another series is T4, CYP2B6 (Homo sapiens, UniProt P20813).
T4 construct: tissue Eurofins Panlabs; host or cells: human liver microsomes
T4 sequence (P20813 1-491): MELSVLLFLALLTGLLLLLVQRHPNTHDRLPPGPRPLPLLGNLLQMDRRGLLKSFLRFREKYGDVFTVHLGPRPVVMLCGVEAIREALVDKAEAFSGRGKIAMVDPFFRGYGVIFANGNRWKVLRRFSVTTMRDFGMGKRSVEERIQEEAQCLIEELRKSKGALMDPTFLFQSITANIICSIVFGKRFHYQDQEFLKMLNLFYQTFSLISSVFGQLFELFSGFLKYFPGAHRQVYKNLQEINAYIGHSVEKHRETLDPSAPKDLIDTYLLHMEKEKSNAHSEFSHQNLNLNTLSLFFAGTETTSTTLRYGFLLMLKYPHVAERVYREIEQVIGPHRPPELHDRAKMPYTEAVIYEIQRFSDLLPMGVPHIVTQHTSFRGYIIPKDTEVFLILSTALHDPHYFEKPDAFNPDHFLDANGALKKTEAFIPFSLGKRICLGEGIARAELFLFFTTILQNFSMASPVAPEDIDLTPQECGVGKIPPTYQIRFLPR
The note with it: earlier finding for CPP-115; cited from earlier work.

For another series, the target named is T5, CYP2C8 (Homo sapiens, UniProt P10632).
T5 construct: tissue Eurofins Panlabs; host or cells: human liver microsomes
T5 sequence (P10632 1-490): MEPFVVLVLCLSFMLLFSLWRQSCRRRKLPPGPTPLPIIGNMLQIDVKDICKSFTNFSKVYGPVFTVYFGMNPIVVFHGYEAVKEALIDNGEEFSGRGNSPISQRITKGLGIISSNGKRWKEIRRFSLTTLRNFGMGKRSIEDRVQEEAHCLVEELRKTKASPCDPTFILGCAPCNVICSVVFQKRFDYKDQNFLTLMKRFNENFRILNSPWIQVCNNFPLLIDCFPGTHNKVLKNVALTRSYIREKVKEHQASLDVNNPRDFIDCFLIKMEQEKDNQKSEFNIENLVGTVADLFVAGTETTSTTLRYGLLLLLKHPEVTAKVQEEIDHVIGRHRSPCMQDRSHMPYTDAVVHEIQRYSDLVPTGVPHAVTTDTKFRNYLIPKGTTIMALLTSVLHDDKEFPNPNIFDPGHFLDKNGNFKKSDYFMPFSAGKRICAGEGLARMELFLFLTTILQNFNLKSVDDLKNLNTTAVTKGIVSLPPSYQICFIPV
The note with it: earlier finding for CPP-115; cited from earlier work.

The target of another series is T6, CYP2C9 (Homo sapiens, UniProt P11712).
T6 construct: tissue Eurofins Panlabs; host or cells: human liver microsomes
The note with it: earlier finding for CPP-115; cited from earlier work.

Another series deals with T7, CYP2C19 (Homo sapiens, UniProt P33261).
T7 construct: tissue Eurofins Panlabs; host or cells: human liver microsomes
The note with it: earlier finding for CPP-115; cited from earlier work.

The next series concerns the target T8, CYP2D6 (Homo sapiens, UniProt P10635).
T8 construct: tissue Eurofins Panlabs; host or cells: human liver microsomes
The note with it: earlier finding for CPP-115; cited from earlier work.

The next series deals with CYP3A. The note with it: earlier finding for CPP-115; cited from earlier work.
Another series deals with striatal dopamine levels. The note with it: previous similar tests; cited from earlier work.
Series [4] deals with glucose metabolism in the hippocampus. The note with it: previous similar tests; cited from earlier work.
Another series has as its system infantile spasms. The note with it: multiple-hit rat model; cited from earlier work.
The conditions of series [5]: in vivo; cited from earlier work.
Series [6] deals with release of dopamine in the NAcc. The note with it: freely moving rats after 20 mg/kg cocaine; cited from earlier work.
The next series deals with cocaine addiction. The note with it: cocaine addiction in humans, 9-week double-blind trial; cited from earlier work.
For series [7] the following is noted: long-term administration; cited from earlier work.
Another series has as its system addiction. The note with it: cocaine, nicotine, methamphetamine, heroin, and alcohol; cited from earlier work.

A value given as a limit tells only on which side of the number the result lay.

T7 sequence (P33261 whole entry): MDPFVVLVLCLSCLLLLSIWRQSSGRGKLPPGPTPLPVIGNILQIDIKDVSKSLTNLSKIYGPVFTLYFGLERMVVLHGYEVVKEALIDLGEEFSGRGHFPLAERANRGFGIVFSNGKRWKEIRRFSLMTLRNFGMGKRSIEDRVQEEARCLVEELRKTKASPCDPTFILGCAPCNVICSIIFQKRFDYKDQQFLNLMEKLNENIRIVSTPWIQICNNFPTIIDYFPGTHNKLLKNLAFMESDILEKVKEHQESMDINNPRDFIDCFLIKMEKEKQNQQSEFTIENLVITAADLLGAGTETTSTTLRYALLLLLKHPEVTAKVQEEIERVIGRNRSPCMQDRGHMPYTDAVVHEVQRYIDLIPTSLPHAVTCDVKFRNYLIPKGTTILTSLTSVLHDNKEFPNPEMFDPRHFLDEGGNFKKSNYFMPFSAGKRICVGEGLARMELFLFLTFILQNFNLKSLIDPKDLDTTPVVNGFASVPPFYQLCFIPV
T8 sequence (P10635 whole entry): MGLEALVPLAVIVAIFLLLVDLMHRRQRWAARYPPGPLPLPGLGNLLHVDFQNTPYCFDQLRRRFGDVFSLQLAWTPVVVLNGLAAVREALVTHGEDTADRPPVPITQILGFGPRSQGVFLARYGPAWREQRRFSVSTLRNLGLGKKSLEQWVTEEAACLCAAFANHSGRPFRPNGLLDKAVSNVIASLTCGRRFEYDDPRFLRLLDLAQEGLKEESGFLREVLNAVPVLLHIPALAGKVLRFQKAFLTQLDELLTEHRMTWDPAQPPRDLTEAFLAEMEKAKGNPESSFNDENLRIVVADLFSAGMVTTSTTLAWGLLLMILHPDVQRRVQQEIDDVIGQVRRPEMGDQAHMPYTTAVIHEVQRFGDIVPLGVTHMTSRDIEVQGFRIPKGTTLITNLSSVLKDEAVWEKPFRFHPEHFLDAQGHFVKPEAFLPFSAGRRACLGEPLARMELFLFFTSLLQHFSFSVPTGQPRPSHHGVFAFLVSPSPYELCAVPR
T6 sequence (P11712 whole entry): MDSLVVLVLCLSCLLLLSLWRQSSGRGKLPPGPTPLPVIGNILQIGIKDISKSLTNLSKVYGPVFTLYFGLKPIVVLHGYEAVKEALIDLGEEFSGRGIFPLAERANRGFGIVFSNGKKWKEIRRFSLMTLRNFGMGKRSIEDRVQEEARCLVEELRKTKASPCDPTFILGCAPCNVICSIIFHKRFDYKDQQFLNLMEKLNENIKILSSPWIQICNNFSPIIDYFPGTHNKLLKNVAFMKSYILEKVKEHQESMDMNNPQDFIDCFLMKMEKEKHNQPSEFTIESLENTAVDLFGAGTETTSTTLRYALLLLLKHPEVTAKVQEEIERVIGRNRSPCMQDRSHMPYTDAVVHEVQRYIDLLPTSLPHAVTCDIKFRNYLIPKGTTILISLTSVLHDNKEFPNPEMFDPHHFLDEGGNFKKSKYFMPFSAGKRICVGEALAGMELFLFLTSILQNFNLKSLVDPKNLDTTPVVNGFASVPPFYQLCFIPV
T2 sequence (Q12809 whole entry): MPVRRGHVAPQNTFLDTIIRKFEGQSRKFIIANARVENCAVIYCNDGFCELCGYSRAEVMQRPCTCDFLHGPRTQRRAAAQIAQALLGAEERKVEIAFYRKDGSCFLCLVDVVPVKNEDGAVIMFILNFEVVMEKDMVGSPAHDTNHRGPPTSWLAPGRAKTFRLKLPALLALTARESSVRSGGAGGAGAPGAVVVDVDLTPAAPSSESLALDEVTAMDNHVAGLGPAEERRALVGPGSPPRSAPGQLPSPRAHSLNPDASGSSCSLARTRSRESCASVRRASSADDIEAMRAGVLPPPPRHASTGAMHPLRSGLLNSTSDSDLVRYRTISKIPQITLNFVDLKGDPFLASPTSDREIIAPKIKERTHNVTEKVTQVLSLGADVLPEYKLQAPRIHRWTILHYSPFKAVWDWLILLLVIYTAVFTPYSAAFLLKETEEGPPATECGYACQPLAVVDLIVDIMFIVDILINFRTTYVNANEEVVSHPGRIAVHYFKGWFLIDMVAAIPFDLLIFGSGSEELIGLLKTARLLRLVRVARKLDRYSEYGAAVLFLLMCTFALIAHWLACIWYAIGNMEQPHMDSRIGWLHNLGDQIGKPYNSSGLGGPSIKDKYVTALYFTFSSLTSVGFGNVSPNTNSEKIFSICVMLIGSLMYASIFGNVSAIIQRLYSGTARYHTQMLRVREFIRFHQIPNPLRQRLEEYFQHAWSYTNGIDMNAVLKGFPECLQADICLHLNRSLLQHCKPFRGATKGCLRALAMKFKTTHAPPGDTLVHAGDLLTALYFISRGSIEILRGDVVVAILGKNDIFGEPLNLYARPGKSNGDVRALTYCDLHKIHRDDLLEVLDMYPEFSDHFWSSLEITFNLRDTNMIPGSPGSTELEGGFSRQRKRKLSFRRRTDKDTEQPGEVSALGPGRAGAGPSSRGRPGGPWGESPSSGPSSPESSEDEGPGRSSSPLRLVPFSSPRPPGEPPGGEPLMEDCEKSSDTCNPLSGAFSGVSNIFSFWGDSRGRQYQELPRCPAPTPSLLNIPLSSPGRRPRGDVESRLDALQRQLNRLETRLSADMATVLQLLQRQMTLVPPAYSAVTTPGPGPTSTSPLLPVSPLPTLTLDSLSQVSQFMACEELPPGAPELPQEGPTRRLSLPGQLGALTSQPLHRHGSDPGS

Take `N[C@H]1C[C@@H](C(=O)O)CC1=C(F)F` [CPP-115, (1S,3S)-3-amino-4-difluoromethylenyl-1-cyclopentanoic acid]: the “inactivation or inhibition of Asp-AT” value in [1] is given as “not to inactivate or inhibit”. Moreover, the “inactivation or inhibition of Ala-AT” value in [2] is “not to inactivate or inhibit”. The KI (inactivation) in series [3] was 116 µM. Further, on hERG channel, the “inhibition of the activity of the hERG channel” value is “does not inhibit”. Besides, the “inhibition or induction of CYP 1A” value on CYP1A is recorded as “does not inhibit or induce”. In addition, at CYP2B6, the “inhibition or induction of CYP 2B6” value is recorded as “does not inhibit or induce”. On CYP2C8, the “inhibition or induction of CYP 2C8” value is “does not inhibit or induce”. Also, the “inhibition or induction of CYP 2C9” value on CYP2C9 was “does not inhibit or induce”. The “inhibition or induction of CYP 2C19” value on CYP2C19 is listed as “does not inhibit or induce”. The “inhibition or induction of CYP 2D6” value at CYP2D6 was “does not inhibit or induce”. Also, the “inhibition or induction of CYP 3A” value with CYP3A was “does not inhibit or induce”. In the series with striatal dopamine levels, the “cocaine-induced increases in striatal dopamine” value is given as “blocked”. The “hippocampal metabolism (cocaine-induced)” value in series [4] is reported as “did not completely block”. Besides, the “duration of spasm suppression versus vigabatrin” value with infantile spasms is given as “longer spasm suppression”. Moreover, in series [5], the “margin of safety versus vigabatrin” value is “much larger” and the “retinal toxicity liability versus vigabatrin” value was “considerably lower”. In addition, the “times more potent than vigabatrin in reducing the release of dopamine in the NAcc” value in [6] is listed as > 300 times.
As for `C=CC(N)CCC(=O)O` (stereo not shown) [vigabatrin], in the series on striatal dopamine levels, the “cocaine-induced increases in striatal dopamine” value is given as “blocked”. The “hippocampal metabolism (cocaine-induced)” value in [4] is “did not completely block”. Further, the patients achieving abstinence result with cocaine addiction is “up to 28%”. For the same molecule, the “epilepsy patients with permanent vision loss” value in series [7] is 25-40%. Also, in the series with addiction, the “treatment of addiction in animal models” value was “successful”.
